Where two headings read alike, the source gives them in different places.
What was measured:
DDR1 = DDR1 (Homo sapiens (Human), UniProt Q08345); experiment: DDR1 LanthaScreen Europium Kinase Binding assay
Experimental: (§1) DDR1 and DDR2 binding assays were performed using Life Technologies LanthaScreen™ Europium Kinase Binding assay. The compounds were incubated with 5 nM DDR1 (Carna Biosciences) or 5 nM DDR2 (Life Technologies) for 1 hour at rt in white 384-well OptiPlate (PerkinElmer), containing 20 nM or 10 nM Kinase Tracer 178 respectively and 2 nM Europium labelled anti-GST antibody (Life Technologies) in assay buffer (50 mM HEPES pH 7.5, 10 mM MgCI2, 1 mM EGTA and 0.01% BRIJ35). The ratio of fluorescence emission 665 nm/615 nm after excitation at 340 nm was obtained using the Tecan Spark 20M plate reader. IC50 values were determined in GraphPad Prism 7.0 software, using 4 parameter model: log(inhibitor) vs. response. IC50 values were converted in Ki using the Cheng-Prusoff equation (Ki=IC50/(1+[Tracer]/Kd).
(§2) Compounds C1 and C2 were tested in the same binding assay described above.

DDR2 = DDR2 (Homo sapiens (Human), UniProt Q16832); experiment: DDR2 LanthaScreen Europium Kinase Binding assay
Experimental: as §1, §2

[1] = binding, 5 nM DDR1, 20 nM Kinase Tracer 178, 1 hour at rt, Ki from IC50 by Cheng-Prusoff, read-out: Ki DDR1
[2] = binding, 5 nM DDR2, 10 nM Kinase Tracer 178, 1 hour at rt, Ki from IC50 by Cheng-Prusoff, read-out: Ki DDR2
[3] = same binding assay, numeric values, read-out: DDR1 Ki

DDR2, sequence (Q16832 22-855): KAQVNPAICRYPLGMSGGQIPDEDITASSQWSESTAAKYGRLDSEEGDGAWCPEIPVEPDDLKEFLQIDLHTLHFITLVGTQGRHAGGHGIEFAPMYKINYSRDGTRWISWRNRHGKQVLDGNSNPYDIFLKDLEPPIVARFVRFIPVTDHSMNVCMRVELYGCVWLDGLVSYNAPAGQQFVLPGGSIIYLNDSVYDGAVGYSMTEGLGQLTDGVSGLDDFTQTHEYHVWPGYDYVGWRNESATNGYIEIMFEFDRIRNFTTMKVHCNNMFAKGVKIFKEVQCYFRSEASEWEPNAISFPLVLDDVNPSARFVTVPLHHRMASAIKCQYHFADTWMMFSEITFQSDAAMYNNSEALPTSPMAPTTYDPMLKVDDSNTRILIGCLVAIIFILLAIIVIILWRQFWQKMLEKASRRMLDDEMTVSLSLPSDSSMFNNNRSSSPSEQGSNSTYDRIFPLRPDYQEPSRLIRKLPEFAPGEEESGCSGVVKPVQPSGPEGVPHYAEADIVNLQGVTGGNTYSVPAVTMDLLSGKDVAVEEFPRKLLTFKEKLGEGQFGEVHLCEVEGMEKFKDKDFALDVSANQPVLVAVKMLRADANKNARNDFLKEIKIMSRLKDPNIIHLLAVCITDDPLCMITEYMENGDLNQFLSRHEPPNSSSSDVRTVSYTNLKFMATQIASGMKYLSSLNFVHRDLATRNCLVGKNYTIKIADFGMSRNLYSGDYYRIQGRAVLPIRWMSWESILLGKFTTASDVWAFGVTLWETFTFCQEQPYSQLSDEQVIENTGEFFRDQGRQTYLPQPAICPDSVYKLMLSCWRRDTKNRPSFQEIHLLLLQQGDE
DDR1, sequence (Q08345 19-913): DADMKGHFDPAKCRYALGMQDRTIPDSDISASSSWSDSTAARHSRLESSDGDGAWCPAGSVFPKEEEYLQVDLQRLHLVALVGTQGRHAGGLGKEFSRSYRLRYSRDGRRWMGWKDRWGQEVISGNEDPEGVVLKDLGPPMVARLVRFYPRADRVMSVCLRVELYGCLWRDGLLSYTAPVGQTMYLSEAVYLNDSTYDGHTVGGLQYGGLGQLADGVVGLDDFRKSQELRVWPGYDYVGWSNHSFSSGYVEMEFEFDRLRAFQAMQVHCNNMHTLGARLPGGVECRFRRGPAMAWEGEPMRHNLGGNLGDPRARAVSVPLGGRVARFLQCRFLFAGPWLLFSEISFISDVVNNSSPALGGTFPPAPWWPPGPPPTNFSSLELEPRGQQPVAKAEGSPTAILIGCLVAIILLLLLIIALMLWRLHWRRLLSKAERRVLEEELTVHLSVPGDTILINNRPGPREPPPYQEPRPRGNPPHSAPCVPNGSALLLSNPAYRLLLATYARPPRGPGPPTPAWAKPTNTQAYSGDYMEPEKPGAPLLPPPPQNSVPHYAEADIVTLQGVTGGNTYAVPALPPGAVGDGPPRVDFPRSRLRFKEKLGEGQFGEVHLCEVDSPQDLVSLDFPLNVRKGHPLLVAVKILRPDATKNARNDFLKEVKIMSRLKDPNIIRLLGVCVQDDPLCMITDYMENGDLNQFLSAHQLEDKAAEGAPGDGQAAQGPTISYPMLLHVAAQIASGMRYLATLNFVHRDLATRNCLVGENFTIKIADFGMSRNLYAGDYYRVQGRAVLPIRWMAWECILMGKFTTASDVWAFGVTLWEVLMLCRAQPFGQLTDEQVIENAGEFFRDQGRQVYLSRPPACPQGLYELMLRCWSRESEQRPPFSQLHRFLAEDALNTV

Row | Structure (SMILES) | Ki (DDR1; [1]) [nM] | Ki (DDR2; [2]) [nM] | Ki (DDR1; [3]) [nM] | Ki (DDR2; DDR2 Ki (nM), same binding assay, numeric values) [nM] | Ki (DDR2; same binding assay, numeric values, read-out: DDR2 Ki) [nM]
1 | Cc1ccc(C(=O)Nc2cccc(C(F)(F)F)c2)cc1C1CCN(c2ccnc(C(N)=O)c2)C1 (racemic) [Example 53, 4-(3-(2-methyl-5-((3-(trifluoromethyl)phenyl)carbamoyl)phenyl)pyrrolidin-1-yl)picolinamide] | < 10 | < 10 | – | – | –
2 | Cc1ccc(C(=O)Nc2cccc(C(F)(F)F)c2)cc1C1CCN(c2ccnc(C(N)=O)c2)C1 (single isomer, unassigned) [Example 54, 4-(3-(2-methyl-5-((3-(trifluoromethyl)phenyl)carbamoyl)phenyl)pyrrolidin-1-yl)picolinamide] | < 10 | < 10 | – | – | –
3 | Cc1ccc(C(=O)Nc2cccc(C(F)(F)F)c2)cc1C1CCN(c2ccnc(C(N)=O)c2)C1 (single isomer, unassigned) [Example 55, 4-(3-(2-methyl-5-((3-(trifluoromethyl)phenyl)carbamoyl)phenyl)pyrrolidin-1-yl)picolinamide] | 10 to 25 | 25 to 60 | – | – | –
4 | Cc1ccc(C(=O)Nc2cccc(C(F)(F)F)c2)cc1C1CN1c1cccnc1 (stereo not drawn) [Compound C1, 4-methyl-3-(1-(pyridin-3-yl)aziridin-2-yl)-N-(3-(trifluoromethyl)phenyl)benzamide, reference compound] | – | – | 174 | 305 | –
5 | Cc1ccc(C(=O)Nc2cccc(C(F)(F)F)c2)cc1C1CCN(Cc2cccnc2)C1 (stereo not drawn) [Compound C2, 4-methyl-3-(1-(pyridin-3-ylmethyl)pyrrolidin-3-yl)-N-(3-(trifluoromethyl)phenyl)benzamide, reference compound] | – | – | 571 | – | 764
6 | CNC(=O)c1cc(N2CCC(c3cc(C(=O)Nc4cccc(C(F)(F)F)c4)ccc3C)C2)ccn1 (stereo not drawn) [Example 1, N-methyl-4-(3-(2-methyl-5-((3-(trifluoromethyl)phenyl)carbamoyl)phenyl)pyrrolidin-1-yl)picolinamide] | < 10 | < 10 | – | – | –
7 | Cc1ccc(C(=O)Nc2cccc(C(F)(F)F)c2)cc1C1CCN(c2cccnc2)C1 (stereo not drawn) [Example 2, 4-methyl-3-(1-(pyridin-3-yl)pyrrolidin-3-yl)-N-(3-(trifluoromethyl)phenyl)benzamide] | < 10 | < 10 | – | – | –
8 | COc1cncc(N2CCC(c3cc(C(=O)Nc4cccc(C(F)(F)F)c4)ccc3C)C2)c1 (stereo not drawn) [Example 3, 3-(1-(5-methoxypyridin-3-yl)pyrrolidin-3-yl)-4-methyl-N-(3-(trifluoromethyl)phenyl)benzamide] | < 10 | < 10 | – | – | –
9 | Cc1ccc(C(=O)Nc2cccc(C(F)(F)F)c2)cc1C1CCN(c2cncc(C#N)c2)C1 (stereo not drawn) [Example 4, 3-(1-(5-cyanopyridin-3-yl)pyrrolidin-3-yl)-4-methyl-N-(3-(trifluoromethyl)phenyl)benzamide] | 10 to 25 | 25 to 60 | – | – | –
10 | Cc1ccc(C(=O)Nc2cccc(C(F)(F)F)c2)cc1C1CCN(c2cncc(OCCN3CCOCC3)c2)C1 (stereo not drawn) [Example 5, 4-methyl-3-(1-(5-(2-morpholinoethoxy)pyridin-3-yl)pyrrolidin-3-yl)-N-(3-(trifluoromethyl)phenyl)benzamide] | < 10 | 25 to 60 | – | – | –
11 | Cc1ccc(C(=O)Nc2cccc(C(F)(F)F)c2)cc1C1CCN(c2cncc(OCCN3CCN(C)CC3)c2)C1 (stereo not drawn) [Example 6, 4-methyl-3-(1-(5-(2-(4-methylpiperazin-1-yl)ethoxy)pyridin-3-yl)pyrrolidin-3-yl)-N-(3-(trifluoromethyl)phenyl)benzamide] | < 10 | < 10 | – | – | –
12 | Cc1ccc(C(=O)Nc2cccc(C(F)(F)F)c2)cc1C1CCN(c2cncc(C(=O)NCCN(C)C)c2)C1 (stereo not drawn) [Example 7, N-(2-(dimethylamino)ethyl)-5-(3-(2-methyl-5-((3-(trifluoromethyl)phenyl)carbamoyl)phenyl)pyrrolidin-1-yl)nicotinamide] | < 10 | < 10 | – | – | –
13 | Cc1ccc(C(=O)Nc2cccc(C(F)(F)F)c2)cc1C1CCN(c2cncc(N3CCOCC3)c2)C1 (stereo not drawn) [Example 8, 4-methyl-3-(1-(5-morpholinopyridin-3-yl)pyrrolidin-3-yl)-N-(3-(trifluoromethyl)phenyl)benzamide] | < 10 | 25 to 60 | – | – | –
14 | COCCNC(=O)c1cncc(N2CCC(c3cc(C(=O)Nc4cccc(C(F)(F)F)c4)ccc3C)C2)c1 (stereo not drawn) [Example 9, N-(2-methoxyethyl)-5-(3-(2-methyl-5-((3-(trifluoromethyl)phenyl)carbamoyl)phenyl)pyrrolidin-1-yl)nicotinamide] | < 10 | 10 to 25 | – | – | –
15 | CNC(=O)c1cncc(N2CCC(c3cc(C(=O)Nc4cccc(C(F)(F)F)c4)ccc3C)C2)c1 (stereo not drawn) [Example 10, N-methyl-5-(3-(2-methyl-5-((3-(trifluoromethyl)phenyl)carbamoyl)phenyl)pyrrolidin-1-yl)nicotinamide] | < 10 | 10 to 25 | – | – | –
16 | Cc1ccc(C(=O)Nc2cccc(C(F)(F)F)c2)cc1C1CCN(c2cncc(CN3CCOCC3)c2)C1 (stereo not drawn) [Example 11, 4-methyl-3-(1-(5-(morpholinomethyl)pyridin-3-yl)pyrrolidin-3-yl)-N-(3-(trifluoromethyl)phenyl)benzamide] | < 10 | 10 to 25 | – | – | –
17 | Cc1ccc(C(=O)Nc2cccc(C(F)(F)F)c2)cc1C1CCN(c2cncc(N3CCN(C)CC3)c2)C1 (stereo not drawn) [Example 12, 4-methyl-3-(1-(5-(4-methylpiperazin-1-yl)pyridin-3-yl)pyrrolidin-3-yl)-N-(3-(trifluoromethyl)phenyl)benzamide] | < 10 | 10 to 25 | – | – | –
18 | Cc1ccc(C(=O)Nc2cccc(C(F)(F)F)c2)cc1C1CCN(c2cncc(Br)c2)C1 (stereo not drawn) [Example 13, 3-(1-(5-bromopyridin-3-yl)pyrrolidin-3-yl)-4-methyl-N-(3-(trifluoromethyl)phenyl)benzamide] | 10 to 25 | 25 to 60 | – | – | –
19 | Cc1ccc(C(=O)Nc2cccc(C(F)(F)F)c2)cc1C1CCN(C(=O)c2cccnc2)C1 (stereo not drawn) [Example 14, 4-methyl-3-(1-nicotinoylpyrrolidin-3-yl)-N-(3-(trifluoromethyl)phenyl)benzamide] | < 10 | < 10 | – | – | –
20 | Cc1ccc(C(=O)Nc2cccc(C(F)(F)F)c2)cc1[C@H]1CCN(c2cccnc2)C1 [Example 15, (R)-4-methyl-3-(1-(pyridin-3-yl)pyrrolidin-3-yl)-N-(3-(trifluoromethyl)phenyl)benzamide] | 10 to 25 | 25 to 60 | – | – | –
21 | Cc1ccc(C(=O)Nc2cccc(C(F)(F)F)c2)cc1[C@@H]1CCN(c2cccnc2)C1 [Example 16, (S)-4-methyl-3-(1-(pyridin-3-yl)pyrrolidin-3-yl)-N-(3-(trifluoromethyl)phenyl)benzamide] | < 10 | < 10 | – | – | –
22 | Cc1ccc(C(=O)Nc2cccc(C(F)(F)F)c2)cc1C1CCN(c2cncc(C(N)=O)c2)C1 (stereo not drawn) [Example 17, 5-(3-(2-methyl-5-((3-(trifluoromethyl)phenyl)carbamoyl)phenyl)pyrrolidin-1-yl)nicotinamide] | < 10 | 10 to 25 | – | – | –
23 | Cc1ccc(C(=O)Nc2cccc(C(F)(F)F)c2)cc1[C@H]1CCN(c2cncc(C(N)=O)c2)C1 [Example 18, (R)-5-(3-(2-methyl-5-((3-(trifluoromethyl)phenyl)carbamoyl)phenyl)pyrrolidin-1-yl)nicotinamide] | < 10 | 10 to 25 | – | – | –
24 | Cc1ccc(C(=O)Nc2cccc(C(F)(F)F)c2)cc1[C@@H]1CCN(c2cncc(C(N)=O)c2)C1 [Example 19, (S)-5-(3-(2-methyl-5-((3-(trifluoromethyl)phenyl)carbamoyl)phenyl)pyrrolidin-1-yl)nicotinamide] | < 10 | < 10 | – | – | –

From patent US20240425482A1, “PYRROLIDINE DERIVATIVES AS DDRS INHIBITORS” (CHIESI FARMACEUTICI S.P.A., priority 2021, published 2024)
